Source: ChEMBL document CHEMBL1201862, “PubChem BioAssay data set” (2004)
Activity calls are given as the source filed them.

Assays:
[1] = biological target: Type-1 angiotensin II receptor (Homo sapiens, UniProt P30556); test: agonist activity at AGTR1 – cell-based, uHTS hits, selectivity assay for APJ receptor agonist project, dose response (AID 488865); type: functional;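 further: beta-arrestin recruitment to AT1 measured by enzyme fragment complementation luminescence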
Cannabinoid receptor 1 [2] = biological target: T1, Cannabinoid receptor 1 (Homo sapiens, UniProt P21554); test: SAR analysis of agonists of the Cannabinoid Receptor 1 using an Image-Based Assay - Set 4. [Related pubchem assays (depositor defined):AID2013, AID2026]; type: functional
T1 sequence (P21554 whole entry): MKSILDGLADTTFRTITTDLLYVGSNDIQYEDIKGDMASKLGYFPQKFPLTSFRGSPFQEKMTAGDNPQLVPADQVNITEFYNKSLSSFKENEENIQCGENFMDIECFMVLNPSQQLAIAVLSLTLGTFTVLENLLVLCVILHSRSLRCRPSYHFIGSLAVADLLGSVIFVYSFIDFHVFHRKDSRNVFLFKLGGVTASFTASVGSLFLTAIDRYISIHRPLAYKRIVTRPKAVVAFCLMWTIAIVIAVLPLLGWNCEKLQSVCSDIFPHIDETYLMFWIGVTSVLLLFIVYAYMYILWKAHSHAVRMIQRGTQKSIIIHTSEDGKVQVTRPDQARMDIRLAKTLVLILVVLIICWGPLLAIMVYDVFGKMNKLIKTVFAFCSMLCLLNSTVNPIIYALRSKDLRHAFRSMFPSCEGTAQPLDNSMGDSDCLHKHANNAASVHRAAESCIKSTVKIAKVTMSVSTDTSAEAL

Cannabinoid receptor 1 [3] = biological target: T1, Cannabinoid receptor 1; test: SAR analysis of antagonists of the Cannabinoid Receptor 1 using an Image-Based Assay - Set 4. [Related pubchem assays (depositor defined):AID2013, AID2026]; type: functional
Cannabinoid receptor 2 [4] = biological target: T2, Cannabinoid receptor 2 (Homo sapiens, UniProt P34972); test: SAR analysis of agonists of the Cannabinoid Receptor 2 using an Image-Based Assay - Set 3. [Related pubchem assays (depositor defined):AID2013, AID2026]; type: functional
T2 sequence (P34972 whole entry): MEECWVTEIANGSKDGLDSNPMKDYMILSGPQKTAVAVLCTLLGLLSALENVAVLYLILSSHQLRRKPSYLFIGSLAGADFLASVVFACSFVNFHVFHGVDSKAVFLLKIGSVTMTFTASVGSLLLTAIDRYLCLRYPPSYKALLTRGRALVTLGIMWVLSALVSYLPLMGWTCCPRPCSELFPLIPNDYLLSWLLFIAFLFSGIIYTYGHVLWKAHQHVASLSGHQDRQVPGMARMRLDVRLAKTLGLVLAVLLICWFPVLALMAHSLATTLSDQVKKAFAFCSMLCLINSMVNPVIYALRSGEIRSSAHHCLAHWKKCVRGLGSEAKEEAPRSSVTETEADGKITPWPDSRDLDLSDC

[5] = biological target: G-protein coupled receptor 55 (Homo sapiens, UniProt Q9Y2T6); test: SAR Analysis of Selective Antagonists of GPR55 using an Image-Based Assay - Set 4. [Related pubchem assays (depositor defined):AID2013, AID2026]; type: functional;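 further: antagonism of response to 5 µM lysophosphatidylinositol agonist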
Chain of G-protein coupled receptor 55 (Q9Y2T6 whole entry): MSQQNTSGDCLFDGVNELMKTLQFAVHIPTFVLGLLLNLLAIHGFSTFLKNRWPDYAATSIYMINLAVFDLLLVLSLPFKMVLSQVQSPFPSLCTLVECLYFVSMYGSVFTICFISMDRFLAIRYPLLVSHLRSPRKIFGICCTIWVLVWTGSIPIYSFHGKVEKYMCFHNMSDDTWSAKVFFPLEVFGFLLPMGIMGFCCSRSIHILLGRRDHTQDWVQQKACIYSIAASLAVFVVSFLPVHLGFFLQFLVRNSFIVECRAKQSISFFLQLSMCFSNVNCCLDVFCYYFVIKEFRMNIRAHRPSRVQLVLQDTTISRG

[6] = biological target: T3, G-protein coupled receptor 35 (Homo sapiens, UniProt Q9HC97); test: SAR analysis of Agonists of the GPR35 Receptor using an Image-Based Assay - Set 4. [Related pubchem assays (depositor defined):AID2013, AID2026]; type: functional
T3 sequence (Q9HC97 whole entry): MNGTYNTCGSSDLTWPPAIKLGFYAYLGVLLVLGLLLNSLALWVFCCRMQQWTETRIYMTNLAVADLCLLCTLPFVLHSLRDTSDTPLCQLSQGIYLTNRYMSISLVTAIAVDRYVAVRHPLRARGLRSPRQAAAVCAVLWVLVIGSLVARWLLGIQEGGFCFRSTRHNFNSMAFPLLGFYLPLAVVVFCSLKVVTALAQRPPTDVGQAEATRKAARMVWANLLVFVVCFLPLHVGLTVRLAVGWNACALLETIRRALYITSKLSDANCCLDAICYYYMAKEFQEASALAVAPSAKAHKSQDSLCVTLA

[7] = biological target: T3, G-protein coupled receptor 35; test: SAR analysis of Antagonists of the GPR35 Receptor using an Image-Based Assay - Set 6. [Related pubchem assays (depositor defined):AID2013, AID2026]; type: functional
Cannabinoid receptor 2 [8] = biological target: T2, Cannabinoid receptor 2; test: SAR analysis of antagonists of the Cannabinoid Receptor 2 using an Image-Based Assay - Set 3. [Related pubchem assays (depositor defined):AID2013, AID2026]; type: functional
[9] = biological target: T4, Kappa-type opioid receptor (Homo sapiens, UniProt P41145); test: SAR analysis of small molecule antagonists of the kappa opioid receptor via a luminescent beta-arrestin assay - Set 4. [Related pubchem assays (depositor defined):AID1777, AID1778, AID1785, AID1786, AID1966, AID2133, AID2136, AID2285]; type: functional
T4 sequence (P41145 whole entry): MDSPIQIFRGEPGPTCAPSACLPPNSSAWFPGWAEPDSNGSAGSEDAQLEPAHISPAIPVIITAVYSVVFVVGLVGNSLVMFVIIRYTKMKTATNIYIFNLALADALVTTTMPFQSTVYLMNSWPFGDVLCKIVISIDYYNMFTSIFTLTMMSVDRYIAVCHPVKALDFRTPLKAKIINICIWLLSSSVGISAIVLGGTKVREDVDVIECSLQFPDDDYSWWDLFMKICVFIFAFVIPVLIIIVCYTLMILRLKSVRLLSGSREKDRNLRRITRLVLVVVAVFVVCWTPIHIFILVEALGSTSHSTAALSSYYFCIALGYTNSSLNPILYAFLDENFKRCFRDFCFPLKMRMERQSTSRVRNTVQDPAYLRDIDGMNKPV

[10] = biological target: T4, Kappa-type opioid receptor; test: SAR analysis of small molecule antagonists of the kappa opioid receptor via a luminescent beta-arrestin assay - Set 5. [Related pubchem assays (depositor defined):AID1778, AID1785]; type: functional
[11] = Luminescence Cell-Based Dose Response HTS to Identify Activators of Luciferase Translation or Activity in H4-C Neuroglioblastoma Cells. [Related pubchem assays: 1829 (Project Summary), 1814 (Primary HTS)]; type: functional
[12] = Luminescence Cell-Based Dose HTS Response to Identify Inhibitors of 5'UTR Stem-Loop Driven Prion Protein mRNA Translation in H4-C Neuroglioblastoma Cells. [Related pubchem assays (depositor defined):AID1814, AID1827]; type: functional
[13] = luciferase reporter signal suppression in cells – H4 neuroglioma cells, luminescence, dose response (AID 1990); type: functional, cell-based
[14] = Luminescence Cell-Based Dose Response HTS to Identify Activators of 5'UTR Stem-Loop Driven Prion Protein mRNA Translation in H4-C Neuroglioblastoma Cells. [Related pubchem assays: 1829 (Project Summary), 1814 (Primary HTS)]; type: functional
[15] = Luminescence Cell-Based Dose Confirmation HTS to Identify Inhibitors of 5'UTR Stem-Loop Driven Alpha-Synuclein mRNA Translation in H4 Neuroglioblastoma Cells. [Related pubchem assays: 1827 (Project Summary), 1813 (Primary HTS)]; type: functional
[16] = Luminescence Cell-Based Dose Response HTS to Identify Inhibitors of 5'UTR Stem-Loop Driven Prion Protein mRNA Translation in H4 Neuroglioblastoma Cells. [Related pubchem assays: 1827 (Project Summary), 1813 (Primary HTS)]; type: functional
[17] = Luminescence Cell-Based Dose Retest to Confirm Activators of 5'UTR Stem-Loop Driven Alpha-Synuclein mRNA Translation in H4 Neuroglioblastoma Cells. [Related pubchem assays (depositor defined):AID1813, AID1829]; type: functional
[18] = alpha-synuclein stem-loop luciferase translation blockers – H4 neuroglioma cells, luminescence, confirmation (AID 1988); type: functional, cell-based
[19] = Luminescence Cell-Based Dose Response HTS to Identify Inhibitors of Luciferase Translation or Activity in H4-C Neuroglioblastoma Cells. [Related pubchem assays: 1813 (Primary HTS), 1827 (Project Summary)]; type: functional

Chain of Type-1 angiotensin II receptor (P30556 whole entry, the tested form may be a part): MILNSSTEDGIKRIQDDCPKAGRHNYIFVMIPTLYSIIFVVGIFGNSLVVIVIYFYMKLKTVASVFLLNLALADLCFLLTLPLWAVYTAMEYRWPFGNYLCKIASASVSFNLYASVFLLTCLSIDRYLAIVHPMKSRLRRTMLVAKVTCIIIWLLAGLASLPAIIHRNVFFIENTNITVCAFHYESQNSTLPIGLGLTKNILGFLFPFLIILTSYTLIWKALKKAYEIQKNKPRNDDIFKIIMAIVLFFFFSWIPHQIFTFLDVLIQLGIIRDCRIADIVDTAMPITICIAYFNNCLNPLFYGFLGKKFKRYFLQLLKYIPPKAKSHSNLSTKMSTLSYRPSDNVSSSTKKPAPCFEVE

CCN(CC)CCNC(=O)c1ccc(NC(=O)c2cc(-c3ccco3)nc3ccccc23)cc1
EC50 [1]: > 100 µM (inactive)

CCN(CC)S(=O)(=O)c1ccc(NC(=O)c2cc(-c3cccs3)nc3ccccc23)cc1
EC50 (Cannabinoid receptor 1 [2]): > 32 µM (inactive) | IC50 (Cannabinoid receptor 1 [3]): 427 nM (active) | EC50 (Cannabinoid receptor 2 [4]): > 32 µM (inactive) | IC50 [5]: > 32 µM (inactive) | EC50 [6]: > 32 µM (inactive) | IC50 [7]: > 32 µM (inactive) | IC50 (Cannabinoid receptor 2 [8]): > 32 µM (inactive)

COc1ccc(CN(CCNC(=O)c2cccc(CNS(=O)(=O)c3ccc(C)cc3)c2)C(C)C)cc1
IC50 [9]: > 20 µM (inactive) | IC50 [10]: 9.03 µM (active)

COc1ccc(N(CC(=O)Nc2cc(Cl)ccc2OC)S(=O)(=O)c2c(C)noc2C)cc1
EC50 [11]: 4.39 µM (inconclusive) | EC50 [12]: 3.56 µM (active) | EC50 [13]: > 120 µM (not active) | EC50 [14]: 3.56 µM (inconclusive) | EC50 [15]: 21.5 µM (active) | EC50 [16]: 106 µM (active) | EC50 [17]: 21.5 µM (inconclusive) | EC50 [18]: 5.82 µM (active) | EC50 [19]: 4.39 µM (active)
